Reference: article PMC9649518, “Knockout of ABC transporters by CRISPR/Cas9 contributes to reliable and accurate transporter substrate identification for drug discovery” (Frontiers in Pharmacology, 2022)
Each block holds one molecule with its values, some of them ahead of it.

How the values were obtained:
Caco-2 WT cells = assay: Bidirectional transport assay across Caco-2 WT monolayers; conditions: WT Caco-2, 5 μM substrate, n = 3; for Efflux ratio: Papp(B-to-A)/Papp(A-to-B)
Description: (§4) For MRP2, the nonfluorescent compound CDCFDA was used as the probe substrate. […] After treatment, samples were transferred to black-walled 96-well assay plates. A standard curve of 2-fold serial dilution from 10 µM CDCF was generated. The CDCF concentration was measured based on the fluorescence in a microplate fluorescence reader (Tecan, Switzerland) set at 485 nm and 530 nm for the excitation and emission wavelengths, respectively.

Caco^Pgp−/− cells = assay: Bidirectional transport assay across P-gp KO Caco-2 monolayers; conditions: Caco^Pgp−/−, 5 μM substrate, n = 3
Caco^BCRP−/− cells = assay: Bidirectional transport assay across BCRP KO Caco-2 monolayers; conditions: Caco^BCRP−/−, 5 μM substrate, n = 3
Description: as §4

Caco^MRP2−/− cells = assay: Bidirectional transport assay across MRP2 KO Caco-2 monolayers; conditions: Caco^MRP2−/−, 5 μM substrate, n = 3
Description: as §4

Caco^Pgp−/−BCRP−/− cells = assay: Bidirectional transport assay across P-gp/BCRP double KO Caco-2 monolayers; conditions: Caco^Pgp−/−BCRP−/−, 5 μM substrate, n = 3
Description: as §4

Caco^Pgp−/−MRP2−/− cells = assay: Bidirectional transport assay across P-gp/MRP2 double KO Caco-2 monolayers; conditions: Caco^Pgp−/−MRP2−/−, 5 μM substrate, n = 3
Description: as §4

[1] = system: Caco^MRP2−/−BCRP−/− cells; assay: Bidirectional transport assay across MRP2/BCRP double KO Caco-2 monolayers; conditions: Caco^MRP2−/−BCRP−/−, 5 μM substrate, n = 3
Description: as §4

[2] = system: BCRP single- and double-KO Caco-2 cell lines; assay: Bidirectional transport assay, BCRP single- and double-KO cell lines taken together; conditions: 5 μM substrate
[3] = system: MRP2 single- and double-KO Caco-2 cell lines; assay: Bidirectional transport assay, MRP2 single- and double-KO cell lines taken together; conditions: 5 μM substrate
Description: For MRP2, the nonfluorescent compound CDCFDA was used as the probe substrate. This compound passively diffuses into cells and is hydrolyzed by intracellular esterases to the fluorescent product, CDCF, which is then rapidly excreted by MRP2 ([Sampson et al., 2015]). After treatment, samples were transferred to black-walled 96-well assay plates. A standard curve of 2-fold serial dilution from 10 µM CDCF was generated. The CDCF concentration was measured based on the fluorescence in a microplate fluorescence reader (Tecan, Switzerland) set at 485 nm and 530 nm for the excitation and emission wavelengths, respectively.

[4] = Bidirectional transport assay, P-gp single- and double-KO cells taken together; format: in vitro ADME; conditions: human, pH 7.4, 5 μM substrate
Description: (§1) The medium was replaced every second day.
(§2) All these studies were conducted by following similar procedures. […] Then, HBSS was aspirated from both sides.
(§3) The flow rate was 0.3 mL/min.

[5] = molecular target: T1, P-gp, BCRP, and MRP2 efflux transporters (Homo sapiens, UniProt Q92887); assay: Transporter substrate identification with the panel of WT and KO Caco-2 cells; format: in vitro ADME; conditions: 5 μM
T1 construct: endogenous in cells; host or cells: Caco-2 WT and CRISPR/Cas9 transporter-knockout Caco-2 clones
T1 sequence (Q92887 whole entry): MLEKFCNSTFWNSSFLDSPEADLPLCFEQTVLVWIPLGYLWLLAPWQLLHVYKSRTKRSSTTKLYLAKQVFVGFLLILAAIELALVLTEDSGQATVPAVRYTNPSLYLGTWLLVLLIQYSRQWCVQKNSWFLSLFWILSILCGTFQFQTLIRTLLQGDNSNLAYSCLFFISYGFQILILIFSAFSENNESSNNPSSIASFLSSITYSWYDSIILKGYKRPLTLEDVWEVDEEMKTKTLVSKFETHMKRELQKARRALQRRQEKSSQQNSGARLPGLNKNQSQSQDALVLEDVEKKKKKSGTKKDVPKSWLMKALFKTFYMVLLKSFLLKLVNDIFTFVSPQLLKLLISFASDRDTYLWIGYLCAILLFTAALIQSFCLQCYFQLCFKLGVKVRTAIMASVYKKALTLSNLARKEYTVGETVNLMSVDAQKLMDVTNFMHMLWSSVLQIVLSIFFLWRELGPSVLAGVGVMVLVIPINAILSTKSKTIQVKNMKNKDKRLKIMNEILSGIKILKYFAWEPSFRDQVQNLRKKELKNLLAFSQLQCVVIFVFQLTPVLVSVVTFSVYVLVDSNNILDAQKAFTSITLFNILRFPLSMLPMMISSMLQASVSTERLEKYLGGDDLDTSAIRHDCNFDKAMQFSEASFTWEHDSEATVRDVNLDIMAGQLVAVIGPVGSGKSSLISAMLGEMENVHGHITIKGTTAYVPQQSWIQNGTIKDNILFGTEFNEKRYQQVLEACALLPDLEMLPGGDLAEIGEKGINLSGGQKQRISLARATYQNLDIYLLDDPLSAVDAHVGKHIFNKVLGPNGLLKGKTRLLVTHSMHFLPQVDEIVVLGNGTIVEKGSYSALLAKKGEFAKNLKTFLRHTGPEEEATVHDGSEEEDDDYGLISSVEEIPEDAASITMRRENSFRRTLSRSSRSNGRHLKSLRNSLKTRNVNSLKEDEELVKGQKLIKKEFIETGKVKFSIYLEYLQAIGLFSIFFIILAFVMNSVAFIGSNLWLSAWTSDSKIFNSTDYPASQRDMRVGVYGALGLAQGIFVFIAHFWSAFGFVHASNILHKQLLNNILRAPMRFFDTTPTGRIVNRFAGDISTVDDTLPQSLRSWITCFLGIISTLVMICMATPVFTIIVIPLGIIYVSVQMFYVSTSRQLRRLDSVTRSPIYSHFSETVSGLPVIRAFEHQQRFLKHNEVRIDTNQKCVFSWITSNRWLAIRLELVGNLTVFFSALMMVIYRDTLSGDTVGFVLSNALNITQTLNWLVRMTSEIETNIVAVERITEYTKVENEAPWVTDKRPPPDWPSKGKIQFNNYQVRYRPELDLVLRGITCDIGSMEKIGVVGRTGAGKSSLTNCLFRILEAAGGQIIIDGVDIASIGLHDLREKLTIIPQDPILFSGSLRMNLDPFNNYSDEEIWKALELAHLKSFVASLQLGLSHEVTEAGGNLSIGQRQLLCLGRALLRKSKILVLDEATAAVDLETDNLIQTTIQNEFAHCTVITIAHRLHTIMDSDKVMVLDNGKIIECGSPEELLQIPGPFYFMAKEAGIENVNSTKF
Description: as §1, §2, §3

[6] = system: P-gp, BCRP, and MRP2 efflux transporters; assay: as above; format: in vitro ADME, human; conditions: 5 μM; ER ≥ 2 suggests active transport
Description: as §1, §2, §3

[7] = Bidirectional transport assay across Caco-2 WT monolayers; conditions: human
Description: as §4

[8] = Bidirectional transport assay across P-gp KO Caco-2 monolayers; conditions: human, pH 7.4
[9] = Bidirectional transport assay across BCRP KO Caco-2 monolayers; conditions: human
Description: as §4

[10] = Bidirectional transport assay across MRP2 KO Caco-2 monolayers; conditions: human
Description: as §4

[11] = Bidirectional transport assay across P-gp/BCRP double KO Caco-2 monolayers; conditions: human, pH 7.4
Description: as §4

[12] = Bidirectional transport assay across P-gp/MRP2 double KO Caco-2 monolayers; conditions: human, pH 7.4
Description: as §4

[13] = Bidirectional transport assay across MRP2/BCRP double KO Caco-2 monolayers; conditions: human
Description: as §4

BCRP transporter = system: BCRP transporter; set-up: method as in Mease et al., 2012; conditions: 1 µM inhibitor; Caco-2; ref Mease et al., 2012; cited from earlier work
P-gp = system: P-gp; set-up: method as in Mease et al., 2012; conditions: 10 µM inhibitor; Caco-2; ref Mease et al., 2012; cited from earlier work

Papp A-to-B (Caco-2 WT cells; 1 h, 37°C, HBSS pH 7.4): 0.67 ± 0.12 ×10^−6cm/s
Papp B-to-A (Caco-2 WT cells; 1 h, 37°C, HBSS pH 7.4): 10.87 ± 0.20 ×10^−6cm/s
Efflux ratio (Caco-2 WT cells): 16.65 ± 2.90
Efflux ratio (Caco-2 WT cells; listed as E3S): 16.6
Papp A-to-B (Caco^Pgp−/− cells; 1 h, 37°C, HBSS pH 7.4): 1.53 ± 0.24 ×10^−6cm/s
Papp B-to-A (Caco^Pgp−/− cells; 1 h, 37°C, HBSS pH 7.4): 22.48 ± 1.01 ×10^−6cm/s
Efflux ratio (Caco^Pgp−/− cells): 14.90 ± 1.63
Papp A-to-B (Caco^BCRP−/− cells; 1 h, 37°C, HBSS pH 7.4): 1.15 ± 0.11 ×10^−6cm/s
Papp B-to-A (Caco^BCRP−/− cells; 1 h, 37°C, HBSS pH 7.4): 1.58 ± 0.08 ×10^−6cm/s
Efflux ratio (Caco^BCRP−/− cells): 1.36 ± 0.18
Papp A-to-B (Caco^MRP2−/− cells; 1 h, 37°C, HBSS pH 7.4): 2.91 ± 0.32 ×10^−6cm/s
Papp B-to-A (Caco^MRP2−/− cells; 1 h, 37°C, HBSS pH 7.4): 15.32 ± 3.10 ×10^−6cm/s
Efflux ratio (Caco^MRP2−/− cells): 5.24 ± 0.59
Papp A-to-B (Caco^Pgp−/−BCRP−/− cells; 1 h, 37°C, HBSS pH 7.4): 1.88 ± 0.02 ×10^−6cm/s
Papp B-to-A (Caco^Pgp−/−BCRP−/− cells; 1 h, 37°C, HBSS pH 7.4): 1.54 ± 0.30 ×10^−6cm/s
Efflux ratio (Caco^Pgp−/−BCRP−/− cells): 0.820 ± 0.15
Papp A-to-B (Caco^Pgp−/−MRP2−/− cells; 1 h, 37°C, HBSS pH 7.4): 3.23 ± 0.08 ×10^−6cm/s
Papp B-to-A (Caco^Pgp−/−MRP2−/− cells; 1 h, 37°C, HBSS pH 7.4): 25.34 ± 2.06 ×10^−6cm/s
Efflux ratio (Caco^Pgp−/−MRP2−/− cells): 7.830 ± 0.46
Papp A-to-B ([1]; 1 h, 37°C, HBSS pH 7.4): 0.97 ± 0.04 ×10^−6cm/s
Papp B-to-A ([1]; 1 h, 37°C, HBSS pH 7.4): 0.92 ± 0.49 ×10^−6cm/s
Efflux ratio [1]: 0.96 ± 0.51
Efflux ratio [2]: 0.8–1.3
Efflux ratio compared with WT [3]: reduced significantly
SMILES: C[C@]12CC[C@@H]3c4ccc(OS(=O)(=O)O)cc4CC[C@H]3[C@@H]1CCC2=O [Estrone 3-Sulfate, estrone 3-sulfate]

efflux ratio at 1 h, 5 μM [4]: ~1
Substrate of MRP2 (conclusion from ERs in KO cells) [5]: cannot mediate
Efflux transporter substrate identification (conclusion from ERs in WT and KO cells) [6]: P-gp was the main transporter
Papp A→B at 1 h, 5 μM ([7]; Caco-2, pH 7.4): 2.78 ± 0.39 ×10⁻⁶ cm/s
Papp B→A at 1 h, 5 μM ([7]; Caco-2, pH 7.4): 12.2 ± 1.86 ×10⁻⁶ cm/s
efflux ratio at 1 h, 5 μM ([7]; Caco-2, pH 7.4, Efflux ratio, WT Caco-2, 5 μM substrate, Papp(B-to-A)/Papp(A-to-B), n = 3): 4.47 ± 1.19
Papp A→B at 1 h, 5 μM [8]: 4.17 ± 0.17 ×10⁻⁶ cm/s
Papp B→A at 1 h, 5 μM [8]: 2.18 ± 0.43 ×10⁻⁶ cm/s
efflux ratio at 1 h, 5 μM [8]: 0.41 ± 0.04
Papp A→B at 1 h, 5 μM ([9]; pH 7.4): 2.21 ± 0.41 ×10⁻⁶ cm/s
Papp B→A at 1 h, 5 μM ([9]; pH 7.4): 4.88 ± 0.17 ×10⁻⁶ cm/s
efflux ratio at 1 h, 5 μM ([9]; pH 7.4, Efflux ratio, Caco^BCRP−/−, 5 μM substrate, n = 3): ~2
Efflux ratio (Caco^BCRP−/− cells): 2.25 ±0.34
Papp B→A at 1 h, 5 μM ([10]; pH 7.4): 14.7 ± 0.99 ×10⁻⁶ cm/s
efflux ratio at 1 h, 5 μM ([10]; pH 7.4): 3.25 ± 0.31
Papp A→B at 1 h, 5 μM ([10]; pH 7.4, Papp A-to-B, Caco^MRP2−/−, 5 μM substrate, 1 h, 37°C, HBSS pH 7.4, n = 3): 4.53 ± 0.26 ×10⁻⁶ cm/s
Papp A→B at 1 h, 5 μM [11]: 7.54 ± 0.24 ×10⁻⁶ cm/s
Papp B→A at 1 h, 5 μM [11]: 3.22 ± 0.62 ×10⁻⁶ cm/s
efflux ratio at 1 h, 5 μM [11]: 0.43 ± 0.09
Papp A→B at 1 h, 5 μM [12]: 4.23 ± 0.22 ×10⁻⁶ cm/s
Papp B→A at 1 h, 5 μM [12]: 4.51 ± 0.63 ×10⁻⁶ cm/s
efflux ratio at 1 h, 5 μM [12]: 1.07 ± 0.42
Papp B→A at 1 h, 5 μM ([13]; pH 7.4): 17.9 ± 1.89 ×10⁻⁶ cm/s
efflux ratio at 1 h, 5 μM ([13]; pH 7.4): 6.41 ± 0.35
Papp A→B at 1 h, 5 μM ([13]; pH 7.4, Papp A-to-B, Caco^MRP2−/−BCRP−/−, 5 μM substrate, 1 h, 37°C, HBSS pH 7.4, n = 3): 2.79 ± 0.28 ×10⁻⁶ cm/s
SMILES: Cc1c(O)cccc1C(=O)N[C@@H](CSc1ccccc1)[C@H](O)CN1C[C@H]2CCCC[C@H]2C[C@H]1C(=O)NC(C)(C)C [Nelfinavir]

SMILES: COc1ccc2c3c([nH]c2c1)[C@H](C=C(C)C)N1C(=O)[C@@H]2CCCN2C(=O)[C@@H]1C3 [fumitremorgin C]
Inhibition of the BCRP transporter (BCRP transporter): selectively inhibited
Inhibition of P-gp (P-gp): only partially inhibited
